Experimental data from patent US10112941B2, “Tricyclic compounds as anticancer agents” (BRISTOL-MYERS SQUIBB COMPANY, priority 2013, dated 2018).

These compounds were tested against BRD4 (Homo sapiens, UniProt O60885) (assay: Time Resolved Fluorescence Resonance Energy Transfer (TR-FRET) binding assay, BRD4). Conditions: one of the FRET assays described; read-out: FRET BRD4 IC50.
With `Cn1nncc1-c1cnc2c3ccc(C(C)(C)O)cc3n(C(c3ccc(F)cc3)C3CCOCC3)c2c1` (single isomer, unassigned) [Example 67, 2-{5-[(4-Fluorophenyl)(oxan-4-yl)methyl]-3-(1-methyl-1H-1,2,3-triazol-5-yl)-5H-pyrido[3,2-b]indol-7-yl}propan-2-ol] the IC50 was < 25 nM. With `Cc1nnn(C)c1-c1cnc2c3ccc(C(C)(C)O)c(F)c3n(C(c3ccccc3)C3CCOCC3)c2c1` (single isomer, unassigned) [Example 71, 2-[3-(Dimethyl-1H-1,2,3-triazol-5-yl)-6-fluoro-5-[oxan-4-yl(phenyl)methyl]-5H-pyrido[3,2-b]indol-7-yl]propan-2-ol] the IC50 was < 5 nM. For `Cc1nnn(C)c1-c1cnc2c3cc(F)c(C(C)(C)O)cc3n(C(c3ccc(F)cc3)C3CCOCC3)c2c1` (single isomer, unassigned) [Example 78, 2-[3-(Dimethyl-1H-1,2,3-triazol-5-yl)-8-fluoro-5-[(4-fluorophenyl)(oxan-4-yl)methyl]-5H-pyrido[3,2-b]indol-7-yl]propan-2-ol], the IC50 was < 5 nM. `Cc1nnn(C)c1-c1cnc2c3cc(F)c(C(C)(C)O)cc3n(C(c3ccc(F)cc3)C3CCOCC3)c2c1` (single isomer, unassigned) [Example 79, 2-[3-(Dimethyl-1H-1,2,3-triazol-5-yl)-8-fluoro-5-[(4-fluorophenyl)(oxan-4-yl)methyl]-5H-pyrido[3,2-b]indol-7-yl]propan-2-ol] was tested, and the IC50 was < 25 nM. With `Cc1noc(C)c1-c1cnc2c3ccc(C(C)(C)O)c(F)c3n(C(c3ccc(F)cc3)C3CCOCC3)c2c1` (single isomer, unassigned) [Example 80, 2-[3-(Dimethyl-1,2-oxazol-4-yl)-6-fluoro-5-[(4-fluorophenyl)(oxan-4-yl)methyl]-5H-pyrido[3,2-b]indol-7-yl]propan-2-ol] the IC50 was < 25 nM. For `Cc1noc(C)c1-c1cnc2c3ccc(C(C)(C)O)c(F)c3n(C(c3ccc(F)cc3)C3CCOCC3)c2c1` (single isomer, unassigned) [Example 81, 2-[3-(Dimethyl-1,2-oxazol-4-yl)-6-fluoro-5-[(4-fluorophenyl)(oxan-4-yl)methyl]-5H-pyrido[3,2-b]indol-7-yl]propan-2-ol], the IC50 was < 5 nM. `Cc1nnn(C)c1-c1cnc2c3ccc(C(C)(C)O)cc3n(C(c3cccc(F)c3F)C3CCOCC3)c2c1` (single isomer, unassigned) [Example 94, 2-{5-[(2,3-Difluorophenyl)(oxan-4-yl)methyl]-3-(dimethyl-1H-1,2,3-triazol-5-yl)-5H-pyrido[3,2-b]indol-7-yl}propan-2-ol] was tested, and the IC50 was < 5 nM. For `Cc1nnn(C)c1-c1cnc2c3ccc(C(C)(C)O)cc3n(C(c3cccc(F)c3F)C3CCOCC3)c2c1` (single isomer, unassigned) [Example 95, 2-{5-[(2,3-Difluorophenyl)(oxan-4-yl)methyl]-3-(dimethyl-1H-1,2,3-triazol-5-yl)-5H-pyrido[3,2-b]indol-7-yl}propan-2-ol], the IC50 was < 5 nM. For `Cc1nnn(C)c1-c1cnc2c3ccc(C(C)(C)O)cc3n(C(c3ccc(F)c(F)c3)C3CCOCC3)c2c1` (single isomer, unassigned) [Example 96, 2-{5-[(3,4-Difluorophenyl)(oxan-4-yl)methyl]-3-(dimethyl-1H-1,2,3-triazol-5-yl)-5H-pyrido[3,2-b]indol-7-yl}propan-2-ol], the IC50 was < 25 nM. In the case of `Cc1nnn(C)c1-c1cnc2c3ccc(C(C)(C)O)cc3n(C(c3ccc(F)c(F)c3)C3CCOCC3)c2c1` (single isomer, unassigned) [Example 97, 2-{5-[(3,4-Difluorophenyl)(oxan-4-yl)methyl]-3-(dimethyl-1H-1,2,3-triazol-5-yl)-5H-pyrido[3,2-b]indol-7-yl}propan-2-ol], the IC50 is reported as < 5 nM. `Cc1nnn(C)c1-c1cnc2c3ccc(C(C)(C)O)cc3n(C(c3cc(F)cc(F)c3)C3CCOCC3)c2c1` (single isomer, unassigned) [Example 98, 2-{5-[(3,5-Difluorophenyl)(oxan-4-yl)methyl]-3-(dimethyl-1H-1,2,3-triazol-5-yl)-5H-pyrido[3,2-b]indol-7-yl}propan-2-ol] was tested, and the IC50 was < 5 nM. For `Cc1nnn(C)c1-c1cnc2c3ccc(C(C)(C)O)cc3n(C(c3cc(F)cc(F)c3)C3CCOCC3)c2c1` (single isomer, unassigned) [Example 99, 2-{5-[(3,5-Difluorophenyl)(oxan-4-yl)methyl]-3-(dimethyl-1H-1,2,3-triazol-5-yl)-5H-pyrido[3,2-b]indol-7-yl}propan-2-ol], the IC50 was < 5 nM. In the case of `Cc1nnn(C)c1-c1cnc2c3ccc(C(C)(C)O)cc3n(C(c3cccc(F)c3)C3CCOCC3)c2c1` (single isomer, unassigned) [Example 100, 2-[3-(Dimethyl-1H-1,2,3-triazol-5-yl)-5-[(3-fluorophenyl)(oxan-4-yl)methyl]-5H-pyrido[3,2-b]indol-7-yl]propan-2-ol], the IC50 is reported as < 5 nM. In the case of `Cc1nnn(C)c1-c1cnc2c3ccc(C(C)(C)O)cc3n(C(c3cccc(F)c3)C3CCOCC3)c2c1` (single isomer, unassigned) [Example 101, 2-[3-(Dimethyl-1H-1,2,3-triazol-5-yl)-5-[(3-fluorophenyl)(oxan-4-yl)methyl]-5H-pyrido[3,2-b]indol-7-yl]propan-2-ol], the IC50 is reported as < 25 nM. In the case of `Cc1nnn(C)c1-c1cnc2c3ccc(C(C)(C)O)cc3n(C(c3c(F)cc(F)cc3F)C3CCOCC3)c2c1` (single isomer, unassigned) [Example 102, 2-[3-(Dimethyl-1H-1,2,3-triazol-5-yl)-5-[oxan-4-yl(2,4,6-trifluorophenyl)methyl]-5H-pyrido[3,2-b]indol-7-yl]propan-2-ol], the IC50 is reported as < 5 nM. `Cc1nnn(C)c1-c1cnc2c3ccc(C(C)(C)O)cc3n(C(c3c(F)cc(F)cc3F)C3CCOCC3)c2c1` (single isomer, unassigned) [Example 103, 2-[3-(Dimethyl-1H-1,2,3-triazol-5-yl)-5-[oxan-4-yl(2,4,6-trifluorophenyl)methyl]-5H-pyrido[3,2-b]indol-7-yl]propan-2-ol] was tested, and the IC50 was < 5 nM. For `Cc1nnn(C)c1-c1cnc2c3c(F)cc(C(C)(C)O)cc3n(C(c3c(F)cc(F)cc3F)C3CCOCC3)c2c1` (single isomer, unassigned) [Example 104, 2-[3-(Dimethyl-1H-1,2,3-triazol-5-yl)-9-fluoro-5-[oxan-4-yl(2,4,6-trifluorophenyl)methyl]-5H-pyrido[3,2-b]indol-7-yl]propan-2-ol], the IC50 was < 5 nM. For `Cc1nnn(C)c1-c1cnc2c3c(F)cc(C(C)(C)O)cc3n(C(c3c(F)cc(F)cc3F)C3CCOCC3)c2c1` (single isomer, unassigned) [Example 105, 2-[3-(Dimethyl-1H-1,2,3-triazol-5-yl)-9-fluoro-5-[oxan-4-yl(2,4,6-trifluorophenyl)methyl]-5H-pyrido[3,2-b]indol-7-yl]propan-2-ol], the IC50 was < 5 nM. For `Cc1nnn(C)c1-c1cnc2c3c(F)cc(C(C)(C)O)cc3n(C(c3cc(F)ccc3F)C3CCOCC3)c2c1` (single isomer, unassigned) [Example 106, 2-{5-[(2,5-Difluorophenyl)(oxan-4-yl)methyl]-3-(dimethyl-1H-1,2,3-triazol-5-yl)-9-fluoro-5H-pyrido[3,2-b]indol-7-yl}propan-2-ol], the IC50 was < 5 nM. `Cc1nnn(C)c1-c1cnc2c3c(F)cc(C(C)(C)O)cc3n(C(c3cc(F)ccc3F)C3CCOCC3)c2c1` (single isomer, unassigned) [Example 107, 2-{5-[(2,5-Difluorophenyl)(oxan-4-yl)methyl]-3-(dimethyl-1H-1,2,3-triazol-5-yl)-9-fluoro-5H-pyrido[3,2-b]indol-7-yl}propan-2-ol] was tested, and the IC50 was < 5 nM. In the case of `Cc1nnn(C)c1-c1cnc2c3c(F)cc(C(C)(C)O)cc3n(C(c3cccc(F)c3F)C3CCOCC3)c2c1` (single isomer, unassigned) [Example 108, 2-{5-[(2,3-Difluorophenyl)(oxan-4-yl)methyl]-3-(dimethyl-1H-1,2,3-triazol-5-yl)-9-fluoro-5H-pyrido[3,2-b]indol-7-yl}propan-2-ol], the IC50 is reported as < 5 nM. In the case of `Cc1nnn(C)c1-c1cnc2c3c(F)cc(C(C)(C)O)cc3n(C(c3cccc(F)c3F)C3CCOCC3)c2c1` (single isomer, unassigned) [Example 109, 2-{5-[(2,3-Difluorophenyl)(oxan-4-yl)methyl]-3-(dimethyl-1H-1,2,3-triazol-5-yl)-9-fluoro-5H-pyrido[3,2-b]indol-7-yl}propan-2-ol], the IC50 is reported as < 5 nM. `Cc1nnn(C)c1-c1cnc2c3c(F)cc(C(C)(C)O)cc3n(C(c3ccc(F)cc3F)C3CCOCC3)c2c1` (single isomer, unassigned) [Example 110, 2-{5-[(2,4-Difluorophenyl)(oxan-4-yl)methyl]-3-(dimethyl-1H-1,2,3-triazol-5-yl)-9-fluoro-5H-pyrido[3,2-b]indol-7-yl}propan-2-ol] was tested, and the IC50 was < 5 nM. With `Cc1nnn(C)c1-c1cnc2c3c(F)cc(C(C)(C)O)cc3n(C(c3ccc(F)cc3F)C3CCOCC3)c2c1` (single isomer, unassigned) [Example 111, 2-{5-[(2,4-Difluorophenyl)(oxan-4-yl)methyl]-3-(dimethyl-1H-1,2,3-triazol-5-yl)-9-fluoro-5H-pyrido[3,2-b]indol-7-yl}propan-2-ol] the IC50 was < 5 nM. `Cc1nnn(C)c1-c1cnc2c3c(F)cc(C(C)(C)O)cc3n(C(c3cccc(F)c3)C3CCOCC3)c2c1` (single isomer, unassigned) [Example 112, 2-[3-(Dimethyl-1H-1,2,3-triazol-5-yl)-9-fluoro-5-[(3-fluorophenyl)(oxan-4-yl)methyl]-5H-pyrido[3,2-b]indol-7-yl]propan-2-ol] was tested, and the IC50 was < 5 nM. With `Cc1nnn(C)c1-c1cnc2c3c(F)cc(C(C)(C)O)cc3n(C(c3cccc(F)c3)C3CCOCC3)c2c1` (single isomer, unassigned) [Example 113, 2-[3-(Dimethyl-1H-1,2,3-triazol-5-yl)-9-fluoro-5-[(3-fluorophenyl)(oxan-4-yl)methyl]-5H-pyrido[3,2-b]indol-7-yl]propan-2-ol] the IC50 was < 1500 nM. With `Cc1nnn(C)c1-c1cnc2c3c(S(C)(=O)=O)cccc3n(C(c3ccccc3F)C3CCOCC3)c2c1` (single isomer, unassigned) [Example 115, 5-{5-[(2-Fluorophenyl)(oxan-4-yl)methyl]-9-methanesulfonyl-5H-pyrido[3,2-b]indol-3-yl}-1,4-dimethyl-1H-1,2,3-triazole] the IC50 was < 5 nM.
